Experimental data: patent US4859452A (priority 1987, dated 1989)
Where two headings read alike, the source gives them in different places.

What was measured:
[1] = test system: DFMO-Induced Thrombocytopenia; details: rat, in vivo
Protocol: (§1) Central venous catheters were inserted into Fisher 344 male rats. […] This concentration is equimolar to the arginine concentration in 10% Travasol. After 12 days of infusion the rats were sacrificed and platelet counts were determined in peripheral blood.

[2] = Toxicity of continuous i.v. DFMO infusion for 12 days in tumor-bearing and non-tumor-bearing rats; type: in vivo, rat
Text: FIG. 3. […] Bars indicate standard deviation.
In the above described rat model, a continuous infusion of DFMO was given through a central venous catheter.

[3] = human, in vivo
Text: FIG. 4. Platelet counts plotted against days of continuous i.v. DFMO infusion in patients with advanced colorectal carcinoma. […] The paired points are connected by a straight line.
There was no incidence of nausea, vomiting or diarrhea.

[4] = test system: ornithine decarboxylase (ODC); details: cited from earlier work
[5] = in words; tumor and RBC
Protocol: After obtaining the blood sample by venipuncture, or some other suitable means, blood hematocrit is determined and the blood is centrifuged for 10 minutes at 500 g. The plasma is removed for albumin determination and the remaining cells are washed with an equal volume of cold 0.9% NaCl and centrifuged at 200 g for 15 minutes. The buffy coat is then carefully aspirated along with the supernatant and discarded. After thoroughly mixing the packed RBC, a 1.0 ml aliquot is extracted for polyamine analysis. While shaking continuously with a Vortex mixer, 2.5 ml of freshly prepared 6% trichloroacetic acid (TCA) is added followed by 60 ul of 100% TCA. This is done to avoid insufficient mixing if 100% TCA is added directly to RBC. The samples are mixed thoroughly for a minimum of 3 minutes and frozen at -70° C. if further extraction steps are performed. The samples are thawed and centrifuged at 200×g for 15 minutes. The supernatant is then transferred to tubes containing 40 ul of concentrated HCl. The samples are washed twice with anhydrous ether and dried. The pellets are dissolved in 100 ul of 0.5 N HCl and centrifuged at 200 g. The clear supernatant is then analyzed for polyamines using, for example, a Durrum D-500 amino acid analyzer.
A methylcholanthrene-induced fibrosarcoma (0.17 g) was implanted as a brei into the right flank under anesthesia and the animals were fed a chow diet for 21 days. […]

[6] = RBC putrescine in tumor-bearing versus non tumor-bearing rats infused with feeding solutions; details: NTB rats; p<0.05
Text: A methylcholanthrene-induced fibrosarcoma (0.17 g) was implanted as a brei into the right flank under anesthesia and the animals were fed a chow diet for 21 days. When the tumors were at least 1.0 cm in width, two-dimensional measurements with calipers were instituted and the equation, length (cm)×(width [cm])^2 ×1/2=grams of tumor tissue, was used to estimate tumor weight. […] The animals were then allowed to recover overnight and continuous infusions were started the next morning. […] After 6 days of continuous infusion, the animals were sacrificed by aortic bleeding. Liver and tumor were excised and weighed and kept frozen at -70° C. until assays were done. Only viable, nonnecrotic tumor tissue was saved and assayed.

[7] = test system: DFMO-Induced Thrombocytopenia; assay: Influence of ornithine co-administration on DFMO-induced thrombocytopenia in the rat; details: in words
Protocol: as §1

NCCCC(N)(C(=O)O)C(F)F (stereo not shown) [DFMO, Difluoromethylornithine]
effect on platelet suppression / platelet count [1]: significant decrease in platelet count as compared with the saline treatment
tumor growth (MCA sarcoma; MCA sarcoma): reduces the growth rate of an MCA sarcoma but does not produce tumor regression
effect on peripheral platelet counts (MCA sarcoma; rat, in vivo): without suppressing peripheral platelet counts
small intestinal mucosa histology ([2]; rat, in vivo): histological evidence of small intestinal mucosal atrophy
white cell count and hematocrit changes ([2]; rat, in vivo): not significantly altered
clinical toxicity ([2]; rats, 12 day study): no significant clinical toxicity
decreased hearing acuity, patients [3]: two
hematocrit [3]: Significant suppression of the hematocrit was also noted with a trend toward dose related suppression
nausea, vomiting or diarrhea [3]: no incidence
platelet suppression, 8 g dose compared with 6 g dose [3]: significantly greater platelet at the 8 g dose as compared with the 6 g dose
time to resolution of all toxicities after discontinuing infusion [3]: two
white cell count [3]: not affected by either dose
ODC inhibition mode [4]: irreversible inhibitor of ODC

N=C(N)NCCC[C@H](N)C(=O)O [arginine]
comparison of ornithine and arginine for increase in polyamine levels [5]: both appeared to promote an increase in tumor-related levels
increase in RBC putrescine levels versus chow or essential amino acids only [6]: significantly greater (p<0.05) than those receiving chow or essential amino acids only

NCCC[C@H](N)C(=O)O [ornithine]
effect on platelet suppression / platelet count [7]: significant reversal in the platelet suppression
